Measured values: patent publication US20100048944A1, “INTERACTIONS OF HEDGEHOG AND LIVER X RECEPTOR SIGNALING PATHWAYS” (priority 2006, published 2010)

Assays:
Format in all cases: cell-based
[1] = test system: M2-10B4 marrow stromal cells; assay: Alkaline phosphatase activity in M2-10B4 marrow stromal cells; conditions: for Effect on Shh-induced alkaline phosphatase activity / Alkaline Phosphatase Activity: M2-10B4 cells
Text: Alkaline phosphatase activity provides a measure of the osteogenic differentiation of cells. […] The oxysterol combination SS contains 22(S)-hydroxycholesterol and 20(S)-hydroxycholesterol in equal molar proportions. An indication of the molar concentration of the oxysterol combination SS refers to the molar concentration of each component of the combination.

[2] = test system: hedgehog pathway; assay: Net effect of LXR agonists on the hedgehog pathway
Text: Thus, GW3965 is a hedgehog-inhibiting LXR agonist. […] Thus, 22(R)-hydroxycholesterol is a hedgehog-inhibiting LXR agonist. […] The Oxy13 compound is discussed in international application PCT/US2007/05073, which is hereby incorporated by reference.
A known hedgehog agonist is contacted with a model cell in an amount known to induce a hedgehog pathway response or hedgehog signaling response in the cell. Any cell that responds to a hedgehog agonist and an LXR agonist can be used as a model cell. The compound is then tested with an assay to measure the level of hedgehog activation or hedgehog signaling. One of skill in the art would know how to select an assay and conduct an assay to measure the level of hedgehog activation or hedgehog signaling. The hedgehog agonist will cause the level of hedgehog activation or signaling to increase above that of a control cell. While the hedgehog agonist is in contact with the cell, the compound being tested is also contacted with the cell. The level of hedgehog activation or signaling is measured. If introducing the compound decreases the level of hedgehog activation or signaling a statistically significant amount below the level when only the hedgehog agonist was in contact with the cell, then the compound is deemed a hedgehog-inhibiting LXR agonist.

[3] = test system: marrow stromal cells; assay: Osteogenic differentiation of marrow stromal cells; conditions: for Effect on oxysterol-induced osteogenic differentiation: marrow stromal cells
Description: Certain osteogenic oxysterols, such as 20(S)-hydroxycholesterol (20S), induce the osteogenic differentiation of marrow stromal cells by activating the hedgehog signaling pathway. […] Thus, LXR activation can interfere with osteogenic differentiation induced by the activation of hedgehog signaling.
When treated with from 1-10 μM of GW3965 for 8 days, GW3965 inhibited Shh-induced alkaline phosphatase activity.

[4] = test system: LXRα and LXRβ; assay: Inhibition of Shh-induced signaling and alkaline phosphatase activity in siRNA-transfected cells; conditions: for Ability to inhibit Shh-induced signaling and alkaline phosphatase activity: cells transfected with LXRα and LXRβ siRNA; for Ability to inhibit Shh-induced signaling and alkaline phosphatase activity: blocked or not: cells transfected with control scrambled siRNA
Text: Small interfering RNA (siRNA) to LXRα and LXRβ caused an 80-90% inhibition of mRNA expression for these genes, as well as inhibition of ligand-induced expression of LXR target genes, ATP-binding cassette (ABC) transporter proteins ABCA1 and ABCG1.

[5] = test system: Gli-1; assay: Q-RT-PCR expression of hedgehog target gene Gli-1 in M2-10B4 cells
Description: (§1) Activation or inhibition of the hedgehog pathway was assessed by extracting RNA from test cells and using quantitative real time PCR (Q-RT-PCR) to measure the expression of the hedgehog target genes, Gli-1 and Patched (Ptch). […] Expression of Gli-1 and Patched (Ptch) was measured after 72 hours of treatment. FIGS. 2A and 2B present the results of the study. Results from a representative experiment are shown as the mean of triplicate determinations±SD, and expressed as fold induction over control untreated cells.

[6] = test system: C3H10T½ mouse embryonic fibroblasts; assay: Osteocalcin expression in C3H10T½ cells; conditions: 1-10 μM
[7] = test system: M2-10B4 cells; assay: Shh-induced osteocalcin mRNA expression in M2-10B4 cells; conditions: 3 days, 1 μM to 10 μM, relative to Shh alone
[8] = test system: Patched (Ptch); assay: Q-RT-PCR expression of hedgehog target gene Patched (Ptch) in M2-10B4 cells
Description: as §1

[9] = test system: Gli-luciferase reporter construct (8Xgli); assay: Gli-luciferase reporter assay in M2-10B4 cells
Description: Activation or inhibition of the hedgehog pathway was assessed by measuring Gli-reporter activity. This provided a direct indication of the activation or inhibition of the hedgehog pathway. A first set of marrow stromal cells, M2-10B4, were transfected with a Gli-luciferase reporter construct (8Xgli) and a second set of M2-10B4 were transfected with an empty reporter construct without Gli response elements (pGL3b). […] Gli-luciferase reporter activity was tested after 48 hours of treatment. FIG. 1 presents the results of the study. Results from a representative experiment are shown as the mean of triplicate determinations±SD, and expressed as fold induction over control untreated cells.

[10] = test system: C3H10T½ mouse embryonic fibroblasts; assay: Alkaline phosphatase activity in C3H10T½ cells; conditions: 1-10 μM
[11] = 72 hours, SS 5 μM + TO901317 5 μM
[12] = 72 hours, SS 5 μM + TO901317 10 μM
[13] = 72 hours, Shh 100 ng/mL + TO901317 5 μM
[14] = 72 hours, Shh 100 ng/mL + TO901317 10 μM

Compound: CC(C)CCC[C@](C)(O)[C@H]1CC[C@H]2[C@@H]3CC=C4C[C@@H](O)CC[C@]4(C)[C@H]3CC[C@@]21C [20(S)-hydroxycholesterol]
- Induction of alkaline phosphatase activity ([1]; marrow stromal cells M2-10B4, oxysterol alone): induce alkaline phosphatase activity
- Net effect on the hedgehog pathway [2]: activating the hedgehog pathway

Compound: CC(C)CC[C@@H](O)[C@@H](C)[C@H]1CC[C@H]2[C@@H]3CC=C4C[C@@H](O)CC[C@]4(C)[C@H]3CC[C@]12C [22(R)-hydroxycholesterol]
- Net effect on the hedgehog pathway [2]: inhibiting the hedgehog pathway

Compound: C[C@H](CCCC(C)(C)O)[C@H]1CC[C@H]2[C@@H]3CC=C4C[C@@H](O)CC[C@]4(C)[C@H]3CC[C@]12C [25-hydroxycholesterol]
- Net effect on the hedgehog pathway [2]: leaves the hedgehog pathway active

Compound: O=C(O)Cc1cccc(OCCCN(Cc2cccc(C(F)(F)F)c2Cl)CC(c2ccccc2)c2ccccc2)c1 [GW3965, 3-[3-[[[2-chloro-3-(trifluoromethyl)phenyl]methyl](2,2-diphenylethyl)amino]propoxy]benzeneacetic acid]
- Effect on Shh-induced alkaline phosphatase activity ([1]; 8 days, 1-10 μM): inhibited
- Effect on Shh-induced osteogenic differentiation ([3]; M2-10B4 marrow stromal cells): inhibited
- Effect on oxysterol-induced osteogenic differentiation [3]: block
- Net effect on the hedgehog pathway [2]: inhibiting the hedgehog pathway
- Ability to inhibit Shh-induced signaling and alkaline phosphatase activity [4]: blocked
- Ability to inhibit Shh-induced signaling and alkaline phosphatase activity: blocked or not [4]: not

Compound: C=C(C)CCC[C@](C)(O)C1CCC2C3CC=C4CC(O)CC[C@]4(C)C3CC[C@@]21C (stereo partly drawn) [Oxy13]
- Net effect on the hedgehog pathway [2]: activating the hedgehog pathway

Compound: O=S(=O)(c1ccccc1)N(CC(F)(F)F)c1ccc(C(O)(C(F)(F)F)C(F)(F)F)cc1 [TO901317]
- Gli-1 expression [5, 11]: about 8 fold induction over control un
- Gli-1 expression [5, 12]: about 7 fold induction over control un
- Gli-1 expression [5, 13]: about 7 fold induction over control un
- Gli-1 expression [5, 14]: about 3 fold induction over control un
- Gli-1 expression ([5]; TO901317 alone, 5 μM or 10 μM): less than the control cells
- Effect on osteocalcin expression [6]: inhibited
- Effect on Shh-induced alkaline phosphatase activity ([1]; 3 days, concentrations as low as 1 μM): inhibited
- Alkaline Phosphatase Activity ([1]; SS 5 μM + TO901317 5 μM): 198 ± 17 units/mg protein ± SD
- Alkaline Phosphatase Activity ([1]; SS 5 μM + TO901317 10 μM): 61 ± 12 units/mg protein ± SD
- Alkaline Phosphatase Activity ([1]; Shh 50 ng/ml + TO901317 5 μM): 3±2 units/mg protein ± SD
- Effect on oxysterol-induced osteogenic differentiation [3]: block
- Effect on Shh-induced osteocalcin mRNA expression [7]: inhibited
- Net effect on the hedgehog pathway [2]: inhibiting the hedgehog pathway
- Ability to inhibit Shh-induced signaling and alkaline phosphatase activity [4]: blocked
- Ability to inhibit Shh-induced signaling and alkaline phosphatase activity: blocked or not [4]: not
- Ptch expression [8, 11]: about 6 fold induction over control un
- Ptch expression (FIG. 2B; sentence prints Gli-1 expression) [8, 12]: about 4 fold induction over control un
- Ptch expression [8, 13]: about the same level as that of the control cells
- Ptch expression [8, 14]: about the same level as that of the control cells
- Ptch expression ([8]; TO901317 alone, 5 μM or 10 μM): about the same as the control cells
- Gli-luciferase reporter activity ([9]; 48 hours, SS 5 μM + TO901317 5 μM): about 2.5 fold induction over control un
- Gli-luciferase reporter activity ([9]; 48 hours, SS 5 μM + TO901317 10 μM): about the same level as of the control cells
- Gli-luciferase reporter activity ([9]; 48 hours, Shh 200 ng/mL + TO901317 5 μM): about the same level as of the control cells
- Gli-luciferase reporter activity ([9]; TO901317 alone, 5 μM or 10 μM): less than the control cells
- Effect on alkaline phosphatase activity [10]: inhibited
